Test results as given in PubChem BioAssay AID1963867 (Molecular Pharmacology Branch, DTP, NCI, 2024).

Test system: KRAS-mutant PDC tumor spheroid with HUVEC/MSC, viability
Test: Anticancer human tumor 327498-153-R-J2-PDC patient-derived uterine carcinosarcoma cell line growth inhibition [KRAS2]
Details: for viability, T/C: stronger effect = lower value
Description: Multicellular complex tumor spheroid response to RAS pathway inhibitors in combination with a targeted agents in patient-derived cell lines with oncogenic KRAS variants from multiple cancer types
A high-throughput screen of multi-cell type tumor spheroids was designed to identify active combinations of targeted small molecules and KRAS pathway inhibitors. Complex spheroids include a stromal component modeled by human endothelial cells (HUVEC) and fibroblasts modeled by human mesenchymal stem cells (MSCs). The concentration ranges selected for each drug and investigational agent were based upon clinically achievable concentrations if the clinical Cmax of the agent was known.
Compounds. The drugs and investigational agents: BI-3406 (NSC825286), BAY-293 (NSC824723), batoprotafib (TNO155; NSC825523), sotorasib (AMG 510; NSC818433), MRTX1257 (NSC819558), elimusertib (BAY 1895344; NSC800525), molibresib (GSK525762; NSC774829), temuterkib (LY3214996; NSC803410), venetoclax (NSC766270), alisertib (NSC759677), olaparib (NSC753686), talazoparib (NSC767125), erdafitinib (NSC781556), ipatasertib (NSC767898), cabozantinib (NSC761068), nintedanib (NSC756659), abemaciclib (NSC768073), docetaxel (NSC628503), trametinib (NSC758246), and sapanisertib (NSC764658) were obtained from the National Cancer Institute (NCI) Developmental Therapeutics Program Chemical Repository. The FDA-approved anticancer drug set is available from the Developmental Therapeutics Program. […] The stock solutions were prepared in dimethyl sulfoxide (DMSO, Sigma-Aldrich, St. Louis, MO, cat. D2650) at 800-fold the tested concentration and stored at -70 degrees C prior to their use. All drugs and investigational agents were tested over a range starting from a high concentration at or near the clinical Cmax and decreasing in half-log increments. If the clinical Cmax for an agent had not been determined, the highest concentration tested was 10 microM.
Cell Culture. All cells were maintained in an incubator at 37 degrees C and 5% CO2 with 95% humidity. The PDC lines were cultured according to standard operating procedures established by the NCI PDMR (https://pdmr.cancer.gov/sops/default.htm). Briefly, all PDCs were thawed and cultured in Matrigel-coated flasks prepared with a working solution of 1X Ham's F-12 nutrient mix, without supplementation (Invitrogen, Waltham, MA, cat. 11765054), 100 U/mL penicillin-streptomycin (Invitrogen, cat. 15140122), and 2.5% Matrigel (Corning Inc., Corning, NY, cat. 354248) for the first three passages. All PDCs were cultured in complete DMEM/F-12 media containing advanced DMEM/F-12 (Invitrogen, cat. 12634028), 4.9% defined fetal bovine serum, heat inactivated (HyClone Laboratories Inc., Logan, UT, cat. SH30070.03HI), 389 ng/mL hydrocortisone (Sigma-Aldrich, cat. H4001), 9.7 ng/mL human EGF recombinant protein (Invitrogen, cat. PHG0313), 23.4 microg/mL adenine (Sigma-Aldrich, cat. A2786), 97.3 U/mL penicillin-streptomycin (Invitrogen, cat. 15140122), 1.9 mM L-glutamine (Invitrogen, cat. 25030081), and 9.7 microM Y-27632 dihydrochloride (Tocris Bioscience, Bristol, United Kingdom, cat. 1254). The PDCs were cultured in complete DMEM/F12 media without 9.7 microM Y-27632 dihydrochloride for at least two passages prior to the screen. The established cell line HOP-62 was cultured in RPMI 1640 medium, HEPES (Invitrogen, cat. 22400105) with 10% defined fetal bovine serum (HyClone Laboratories Inc., cat. SH30070.03) and 2 mM L-glutamine (Invitrogen, cat. 25030081). The pooled donor HUVEC were cultured in endothelial cell growth medium 2 (PromoCell, Heidelberg, Germany, cat. C-22011) and the hMSC were cultured in mesenchymal stem cell growth medium 2 (PromoCell, cat. C-28009). For all experiments, HUVEC and hMSC were used at passages </=5, while the malignant cell lines were used at passages </=15. […]

[1] = curve of first compound, second compound 0.1 µM
[2] = curve of first compound, second compound 0.316 µM
[3] = curve of first compound, second compound 1 µM
[4] = curve of first compound, second compound 3.16 µM
[5] = curve of first compound, second compound 10 µM
[6] = second compound 0.1 µM, first compound 0.0316 µM
[7] = second compound 0.1 µM, first compound 0.1 µM
[8] = second compound 0.1 µM, first compound 0.316 µM
[9] = second compound 0.1 µM, first compound 1 µM
[10] = second compound 0.1 µM, first compound 3.16 µM
[11] = second compound 0.1 µM, first compound 10 µM
[12] = second compound 0.316 µM, first compound 0.0316 µM
[13] = second compound 0.316 µM, first compound 0.1 µM
[14] = second compound 0.316 µM, first compound 0.316 µM
[15] = second compound 0.316 µM, first compound 1 µM
[16] = second compound 0.316 µM, first compound 3.16 µM
[17] = second compound 0.316 µM, first compound 10 µM
[18] = second compound 1 µM, first compound 0.0316 µM
[19] = second compound 1 µM, first compound 0.1 µM
[20] = second compound 1 µM, first compound 0.316 µM
[21] = second compound 1 µM, first compound 1 µM
[22] = second compound 1 µM, first compound 3.16 µM
[23] = second compound 1 µM, first compound 10 µM
[24] = second compound 3.16 µM, first compound 0.0316 µM
[25] = second compound 3.16 µM, first compound 0.1 µM
[26] = second compound 3.16 µM, first compound 0.316 µM
[27] = second compound 3.16 µM, first compound 1 µM
[28] = second compound 3.16 µM, first compound 3.16 µM
[29] = second compound 3.16 µM, first compound 10 µM
[30] = second compound 10 µM, first compound 0.0316 µM
[31] = second compound 10 µM, first compound 0.1 µM
[32] = second compound 10 µM, first compound 0.316 µM
[33] = second compound 10 µM, first compound 1 µM
[34] = second compound 10 µM, first compound 3.16 µM
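Note: spheroids exposed to agents for seven days before reading.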
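Throughout, for viability, T/C: 100% = DMSO vehicle wells so lower means fewer viable cells.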

SMILES: COc1cc(Nc2ncc3c(n2)-c2ccc(Cl)cc2C(c2c(F)cccc2OC)=NC3)ccc1C(=O)O + CC1OCC2(CCN(c3cnc(Sc4ccnc(N)c4Cl)c(N)n3)CC2)C1N
- IC50 [1]: < 31.6 nM
- IC50 [2]: < 31.6 nM
- IC50 [3]: < 31.6 nM
- IC50 [4]: < 31.6 nM
- IC50 [5]: < 31.6 nM
- viability, T/C [6]: 14.7%
- viability, T/C [7]: 11.3%
- viability, T/C [8]: 9.61%
- viability, T/C [9]: 8.46%
- viability, T/C [10]: 10.4%
- viability, T/C [11]: 10.4%
- viability, T/C [12]: 11.9%
- viability, T/C [13]: 8.86%
- viability, T/C [14]: 8.33%
- viability, T/C [15]: 8.66%
- viability, T/C [16]: 9.93%
- viability, T/C [17]: 9.67%
- viability, T/C [18]: 9.52%
- viability, T/C [19]: 8.62%
- viability, T/C [20]: 7.21%
- viability, T/C [21]: 7.15%
- viability, T/C [22]: 8.7%
- viability, T/C [23]: 7.62%
- viability, T/C [24]: 7.99%
- viability, T/C [25]: 6.54%
- viability, T/C [26]: 6%
- viability, T/C [27]: 5.95%
- viability, T/C [28]: 6.67%
- viability, T/C [29]: 5.35%
- viability, T/C [30]: 7.28%
- viability, T/C [31]: 6.61%
- viability, T/C [32]: 6.26%
- viability, T/C [33]: 6.94%
- viability, T/C [34]: 6.28%
- viability, T/C (second compound 10 µM, first compound 10 µM): 5.22%

SMILES: CC(C)n1nc(-c2ccc3oc(N)nc3c2)c2c(N)ncnc21
- viability, T/C (compound 0.000316 µM): 99.8% [middle of 5 runs]
- viability, T/C (compound 0.001 µM): 92.1% [middle of 5 runs]
- viability, T/C (compound 0.00316 µM): 77.7% [middle of 5 runs]
- viability, T/C (compound 0.01 µM): 49.9% [middle of 5 runs]
- viability, T/C (compound 0.0316 µM): 16% [middle of 5 runs]
- viability, T/C (compound 0.1 µM): 9.59% [middle of 5 runs]
- IC50 (curve of compound): 9.11 nM [middle of 5 runs]

SMILES: COC(=O)c1ccc2c(C(=Nc3ccc(N(C)C(=O)CN4CCN(C)CC4)cc3)c3ccccc3)c(O)[nH]c2c1 + C=CC(=O)N1CCN(c2nc(OCC3CCCN3C)nc3c2CCN(c2cccc4cccc(C)c24)C3)CC1CC#N
- IC50 (curve of first compound, second compound 0.0316 µM): 142 nM
- IC50 [1]: < 31.6 nM
- IC50 [2]: < 31.6 nM
- IC50 [3]: < 31.6 nM
- IC50 [4]: < 31.6 nM
- viability, T/C (second compound 0.0316 µM, first compound 0.0316 µM): 52.8%
- viability, T/C (second compound 0.0316 µM, first compound 0.1 µM): 54.7%
- viability, T/C (second compound 0.0316 µM, first compound 0.316 µM): 42.9%
- viability, T/C (second compound 0.0316 µM, first compound 1 µM): 23.4%
- viability, T/C (second compound 0.0316 µM, first compound 3.16 µM): 8.28%
- viability, T/C (second compound 0.0316 µM, first compound 10 µM): 7.36%
- viability, T/C [6]: 45.9%
- viability, T/C [7]: 42%
- viability, T/C [8]: 37.1%
- viability, T/C [9]: 13%
- viability, T/C [10]: 7.74%
- viability, T/C [11]: 5.84%
- viability, T/C [12]: 49.2%
- viability, T/C [13]: 41.6%
- viability, T/C [14]: 29.6%
- viability, T/C [15]: 14.4%
- viability, T/C [16]: 5.46%
- viability, T/C [17]: 4%
- viability, T/C [18]: 38.6%
- viability, T/C [19]: 21.5%
- viability, T/C [20]: 16.4%
- viability, T/C [21]: 9.18%
- viability, T/C [22]: 0.69%
- viability, T/C [23]: 1.72%
- viability, T/C [24]: 0.33%
- viability, T/C [25]: 0.16%
- viability, T/C [26]: 0.15%
- viability, T/C [27]: 0.12%
- viability, T/C [28]: 1.49%
- viability, T/C [29]: 0.32%

SMILES: CC(=O)OC12COC1CC(O)C1(C)C(=O)C(O)C3=C(C)C(OC(=O)C(O)C(NC(=O)OC(C)(C)C)c4ccccc4)CC(O)(C(OC(=O)c4ccccc4)C21)C3(C)C (configuration not stated) + CC1OCC2(CCN(c3cnc(Sc4ccnc(N)c4Cl)c(N)n3)CC2)C1N
- IC50 [1]: < 10 nM
- IC50 [2]: < 10 nM
- IC50 [3]: < 10 nM
- IC50 [4]: < 10 nM
- IC50 [5]: < 10 nM
- viability, T/C (second compound 0.1 µM, first compound 0.01 µM): 7.15%
- viability, T/C [6]: 5.15%
- viability, T/C [7]: 5.38%
- viability, T/C [8]: 6.78%
- viability, T/C [9]: 9.97%
- viability, T/C [10]: 11.7%
- viability, T/C (second compound 0.316 µM, first compound 0.01 µM): 7.22%
- viability, T/C [12]: 4.87%
- viability, T/C [13]: 5.16%
- viability, T/C [14]: 6.51%
- viability, T/C [15]: 8.59%
- viability, T/C [16]: 12.2%
- viability, T/C (second compound 1 µM, first compound 0.01 µM): 8.68%
- viability, T/C [18]: 6.9%
- viability, T/C [19]: 11%
- viability, T/C [20]: 6.11%
- viability, T/C [21]: 8.45%
- viability, T/C [22]: 11.8%
- viability, T/C (second compound 3.16 µM, first compound 0.01 µM): 6.83%
- viability, T/C [24]: 6.18%
- viability, T/C [25]: 5.94%
- viability, T/C [26]: 6.88%
- viability, T/C [27]: 9.05%
- viability, T/C [28]: 10.5%
- viability, T/C (second compound 10 µM, first compound 0.01 µM): 12.6%
- viability, T/C [30]: 6.42%
- viability, T/C [31]: 9.06%
- viability, T/C [32]: 5.82%
- viability, T/C [33]: 10.8%
- viability, T/C [34]: 10.4%
